The record followed here is US20210085749A1, “Therapeutic and Neuroprotective Peptides” (Allegro Pharmaceuticals, LLC, priority 2017, published 2021).

One data set concerns ARPE-19 cells. As to the kind of experiment: In vitro protection of RPE cells against hydrogen peroxide, Trypan blue exclusion cell count. Format: cell-based. The note with it: 8 hours post exposure. How it is done: Hydrogen peroxide (H2O2), a physiological mediator of oxidative stress, is known to induce apoptosis in retinal pigment epithelial (RPE) cells.
ARPE-19 cells were incubated in DMEM/F12 medium supplemented with 10% fetal bovine serum (FBS) and 50 μg/ml streptomycin and 50 μg/ml of penicillin at 37° C. in an atmosphere of 5% CO2.To induce differentiation, ARP-19 cells were cultured in a Laminin coated transwells for 2 weeks in the same medium supplemented with 1% FBS and antibiotics. The RPE cells were then isolated and aliquots of about 150 μl-200 μl of cell suspension were dispensed into the petri dishes containing control medium. The cells were then incubated at 37 degrees C. for 24 hours before use.
Thereafter, the following four (4) separate neuronal cell dishes were prepared as shown below: • A) Control Retinal RPE cells; • B) Retinal RPE cells incubated with 1.0 mg/ml ALG-1001 (Luminate); • C) Retinal RPE cells incubated with 100 μM of Hydrogen Peroxide; and • D) Retinal RPE cells incubated with 1.0 mg/ml ALG-1001 (Luminate) for 24 hours before exposure to 100 μM of Hydrogen Peroxide.
(§1) Eight (8) hours post exposure, the cell numbers were measured using Trypan blue exclusion assay in a Neubaur Chamber.

In the next data set the test system is retinal ganglion cells. The data set can be described thus: Ocular neuroprotection in vivo, rat model of elevated intraocular pressure (optic nerve ligation), ganglion cell counts. Also on record: species or system Wister rats. As to the method: Healthy Wister rats (n=8) ten (10) weeks of age were kept in a vivarium maintained at a constant temperature of 26° C., and a constant light-dark cycle (14 hours and 10 hours respectively) with food available ad libitum. The rats were randomly divided into a Luminate treatment group of five (5) animals (Group A) and a Basic Salt Solution (BSS-control) treatment group of three (3) animals (Group B).
The animals of Group A each received a single intravitreal injection of 1.28 mg/20 μL of Luminate in the right eye. The animals of Group B each received a single intravitreal injection of 20 μL of balanced salt solution (BSS). The left eyes of all animals in Groups A and B were not injected and were used as untreated controls. The intravitreal injections were administered 2 mm posterior to the limbus in the supronasal quadrant using a 30-gauge needle attached to a 1.0 cc syringe. Care was taken to avoid damage to the lens or retina.
Twenty-four (24) hours after administration of the injections the rats were anesthetized by intraperitoneal injection of 3.0 mL/kg of a mixture of ketamine Hydrochloride (2.5 mg/mL), diazepam (2.0 mg/mL) and atropine (0.1 mg/mL). The eyes were then subjected to peritoneal conjunctival detachment of the lateral rectus muscle to expose the optic nerve. The optic nerve was then ligated with silk suture for a period of 60 minutes during which the absence of blood flow in the retina of each ligated eye was verified by inspection using a Plano contact lens. The ligatures were removed after 60 minutes, and restoration of blood flow to the retina was verified in each previously-ligated eye using the Plano contact lens.
The eyes were then enucleated and fixed for histopathological analysis. Specimens of the retina and optic nerve from each eye were dehydrated and embedded in paraffin. Horizontal sections 4 microns thick were cut and stained with hematoxylin and eosin. Under light microscopy, ganglion cell counts were counted in axial sections of the retina of each eye from ora serrata through the optic nerve. Also, in each section, the number of ganglion cells per millimeter through the total length of the retina was calculated digitally, using a measuring slide calibrated for this purpose.
Measurement of the inner plexiform layer was performed by observing the slides at a magnification of 40× no more than 1 mm from the optic nerve.
The results were subjected to statistical analysis. The results for each group were expressed as mean±standard deviation and the statistical significance between the results of the groups was evaluated by 2 way ANOVA as well as the Mann-Whitney U test. Probabilities of <0.05 were deemed to be significant.

The subject of the next data set is retinal Muller cells. As to the kind of experiment: In vitro protection of retinal Muller cells against Kainic acid, Trypan blue exclusion cell count. Format: cell-based, CD1 mice. The conditions noted are these: 1.0 mg/ml for 24 hours before exposure to 500 μM Kainic acid (Plate D), 48 hours post exposure. As to the method:
CD1 mice were euthanized by decapitation, eyes were rapidly enucleated into DMEM complement with antibiotic solution and stored overnight at room temperature. Subsequently the intact globes were incubated in DMEM containing 0.1% trypsin and 70 U/ml collagenase at 37° C. for 60 minutes.
The incubated materials were placed in a petri dish containing DMEM supplemented with 10% fetal bovine serum, and the retinas were removed without the RPE cells into small aggregates and seeded into 35 mm culture dishes. Medium was unchanged for 6 days and then replenished every 3-4 days. The cultures were maintained at 37° C. in a […]/95% O2 in a humidified incubator.
When the cell outgrowth had attained semiconfluency, (80%) retinal aggregates were removed by pipetting the medium into the dish. This operation was repeated three (3) times until a purified flat cell population was obtained. After 24 hours, the cells were exposed to the experimental conditions.
Four (4) separate Muller cell dishes were prepared, as follows: A) Control Muller cells; B) Muller cells incubated with ALG-1001 (Luminate) 1.0 mg/ml; C) Muller cells incubated with 500 μM of Kainic acid and D) Muller cells incubated with Luminate 1.0 mg/ml for 24 hours before exposure to 500 μM of Kainic acid. Forty Eight (48) hours post exposure, the cell numbers were measured using Trypan blue exclusion assay in a Neubaur Chamber.

Data set [1] is described as follows: Human prospective open label study in Dry AMD, Best Corrected Visual Acuity. Format: in vivo. The conditions noted are these: individual Dry AMD patient; single intravitreal injection 1.0 mg/50 μL. As to the method: To determine if a single Luminate intravitreal injection of 1.0 mg/50 μL has any effect on improving Best Corrected Visual Acuity (BCVA) of Dry AMD subjects with moderate to moderately sever Dry AMD. This is a prospective interventional, open label, IRB approved human clinical proof of concept study conducted in 7 human subjects with moderate to moderately severe Dry AMD. Main inclusion criteria involved patients with Dry Macular Degeneration eyes with relatively intact photoreceptor and RPE layers in the central 1 mm of the macula by OCT. The baseline BCVA of the subjects was between 20/30 and 20/400 with no evidence of sub-retinal fluid or CNV and no history of Anti-VEGF treatment. All recruited patients underwent a baseline single intravitreal injection of Luminate 1.0 mg/50 μL and were monitored monthly, in addition central macular thickness, OCT, digital color photographs and pre and post treatment BCVA were obtained.

Another data set concerns Retinal Neuronal cells. The data set can be described thus: In vitro protection of retinal neuronal cells against Kainic acid, Trypan blue exclusion cell count. The note with it: 8 hours post exposure. Format: cell-based, CD1 mice. How it is done: CD1 mice were euthanized by decapitation, eyes were rapidly enucleated into DMEM complement with antibiotic solution and the retina were isolated from the pigment epithelium.
The isolated retina was incubated in Hank's medium containing 2.5 mg/ml papain and 0.1 mg/ml of cysteine for 15 minutes at 30° C. After rinsing the Hank's medium, supplemented with 1.9 mM of CaCl2), 0.6 mM of MgCl2 and 0.1 mg/ml of bovine serum albumin.
The retina was mechanically dissociated, about 150 μl-200 μl of cell suspension was dispensed into the petri dish containing control medium. Bipolar cells were identified under a microscope by the cells morphology. The cells were incubated for 6 hours before use.
Four (4) separate Neuronal cell dishes were prepared, as follows: A) Control Retinal Neuronal cells, B) Retinal Neuronal cells incubated with ALG-1001 (Luminate) 1.0 mg/ml, C) Retinal Neuronal cells incubated with […], D) Retinal Neuronal cells incubated with Luminate 1.0 mg/ml for 24 hours before exposure to 500 μM of Kainic acid.
as §1

In the next data set the test system is Wister rat retina. As to the kind of experiment: In vivo dose-related neurotoxic effects of intravitreal Kainic acid, retinal histopathology. The note with it: intravitreal 20 μl of 0.5, 5.0, 50.0 mM; 24 hours post treatment. Also on record: species or system Wister rats. How it is done: The right eyes of 4 Wister rats were injected intravitreally with 20 μl of the four different solutions, as follows: A) BSS solution as control, B) 0.5 mM of Kainic acid, C) 5.0 mM of Kainic acid and D) 50.0 mM of Kainic acid.
The rats were sacrificed 24 hours post treatment and the eyes were prepared for Histopathology examination.

Where “and” joins values, the source holds several entries; their conditions need not be identical. Equal entries are not always repeated. Entries after “also recorded” stand apart in the source; their conditions may differ. Square brackets hold non-standard residues; d marks the D form. Peptide text beside a SMILES is read from it. Cya = N[CH](CS(=O)(=O)O)C(=O)O

As for `OO` [Hydrogen Peroxide, Hydrogen peroxide, reference compound], the “RPE cell count, % of the control cell count” value in the data set with ARPE-19 cells (100 μM Hydrogen Peroxide alone (Plate C)) stood at 78%.

In the case of `CC(O)C(NC(=O)C(CS(=O)(=O)O)NC(=O)CNC(=O)C(CCCNC(=N)N)NC(=O)CN)C(=O)N1CCCC1C(=O)O` (centres unmarked) [Luminate, Glycinyl-Arginyl-Glycinyl-Cysteic-Threonyl-Proline] (H-GRG[Cya]TP-OH; configuration not given here), the “Difference between medians: Actual (CONTROLS vs. CASES)” value with retinal ganglion cells (ganglion cells per field, BSS controls minus treated) is −9.000. The “Difference between medians: Hodges-Lehmann (CONTROLS vs. CASES)” value in the data set with retinal ganglion cells (ganglion cells per field, 95.05% CI −13.00 to −6.000) is −10.00. The “neuroprotective effect in rat model of elevated IOP” value with retinal ganglion cells (intravitreal administration, p<0.0001 vs BSS (ANOVA, Mann-Whitney)) was “significant neuroprotective effects”. Further, the “Median of column A (ganglion cells per field, CASES)” value in the data set with retinal ganglion cells (n = 54 fields, Mann-Whitney vs BSS controls P<0.0001) was 18.00, n = 54. Also, in the data set with retinal ganglion cells (per treated eye (case), intravitreal 1.28 mg/20 μL 24 h before 60 min optic nerve ligation), the “SUM of ganglion cells over all fields” value was 234 and 165 and 259 and 218 and 175. The “Muller cell count compared with other plates” value with retinal Muller cells was “higher Muller cell count than any of the other plates”. Further, in data set [1], the “BCVA 3 Months Post Treatment” value is 1.0 log Mar (2×) and 1.3 log Mar and 0.20 log Mar and 0.3 log Mar and 0.6 log Mar; the “BCVA 3 Months Post Treatment (Snellen)” value is 20/200 (2×) and 20/400 and 20/32 and 20/40 and 20/80; the “BCVA letters gained 3 Months Post Treatment vs baseline” value is “up to 20 letters; also recorded: Gained 15 letters; also recorded: Gained no letters; also recorded: Gained 10 letters; also recorded: Gained 20 letters”. For the same compound, the “neuronal cell count, % of Control” value in the data set with Retinal Neuronal cells (1.0 mg/ml for 24 hours before exposure to 500 μM Kainic acid (Plate D)) came out at 80%. Further, the “RPE cell count, % of the control cell count” value in the data set with ARPE-19 cells (1.0 mg/ml for 24 hours before exposure to 100 μM Hydrogen Peroxide (Plate D)) was found to be 90%.

On to `C=C(C)[C@H]1CN[C@H](C(=O)O)[C@H]1CC(=O)O` [Kainic acid, reference compound], for which the “neuronal cell count, % compared to Control” value in the data set on Retinal Neuronal cells (100 μM Kainic acid only (Plate C)) amounted to 58%. The “retinal degeneration by histopathology” value in the data set with Wister rat retina was “dose-related retinal neurotoxisity”.
